Assay results: US20240082282A1 (priority 2020, published 2024)
≈ marks a conversion by molar mass, not a printed value.

Assays:
[1] = system: Fusobacterium nucleatum KLE 2428; type: cell-based; conditions: KLE2428; Fusobacterium nucleatum KLE 2428, anaerobic, stool isolate; read-out: Minimum inhibitory concentration (MIC)
[2] = system: Clostridium tertium KLE 2303; type: cell-based; conditions: KLE2303; Clostridium tertium KLE 2303, anaerobic, stool isolate; read-out: Minimum inhibitory concentration (MIC)
[3] = system: Clostridium perfringens KLE 2326; assay: microbe, parasite or virus in culture; type: cell-based; conditions: Clostridium perfringens, KLE2326, read-out: Minimum inhibitory concentration (MIC)
[4] = system: Staphylococcus aureus HG003; type: cell-based; conditions: Staphylococcus aureus HG003; read-out: Minimum inhibitory concentration (MIC)
[5] = system: Staphylococcus epidermidis KLE 2378; type: cell-based; conditions: KLE2378; Staphylococcus epidermidis KLE 2378, anaerobic, stool isolate; read-out: Minimum inhibitory concentration (MIC)
[6] = system: Shigella sonnei ATCC 25931; type: cell-based; conditions: ATCC25931; Shigella sonnei ATCC 25931, anaerobic; read-out: Minimum inhibitory concentration (MIC)
Escherichia coli MG1655 = type: cell-based; conditions: read-out: Minimum inhibitory concentration (MIC)
[7] = system: Pseudomonas aeruginosa PAO1; type: cell-based; conditions: Pseudomonas aeruginosa PAO1; read-out: Minimum inhibitory concentration (MIC)
[8] = system: Streptococcus salivarius KLE 2370; type: cell-based; conditions: KLE2370; Streptococcus salivarius KLE 2370, anaerobic, stool isolate; read-out: Minimum inhibitory concentration (MIC)
[9] = system: Streptococcus parasanguinis KLE 2375; type: cell-based; conditions: KLE2375; Streptococcus parasanguinis KLE 2375, anaerobic, stool isolate; read-out: Minimum inhibitory concentration (MIC)
[10] = system: Bifidobacterium longum ATCC BAA-999; type: cell-based; conditions: ATCCBAA999; Bifidobacterium longum ATCC BAA-999, anaerobic; read-out: Minimum inhibitory concentration (MIC)
[11] = system: Bacteroides nordii KLE 2369; type: cell-based; conditions: KLE2369; Bacteroides nordii KLE 2369, anaerobic, stool isolate; read-out: Minimum inhibitory concentration (MIC)
[12] = system: Streptococcus sanguinis KLE 2374; type: cell-based; conditions: KLE2374; Streptococcus sanguinis KLE 2374, anaerobic, stool isolate; read-out: Minimum inhibitory concentration (MIC)
[13] = system: Parabacteroides merdae KLE 2238; type: cell-based; conditions: KLE2238; Parabacteroides merdae KLE 2238, anaerobic, stool isolate; read-out: Minimum inhibitory concentration (MIC)
[14] = system: Lactobacillus reuteri ATCC 23272; type: cell-based; conditions: Limosilactobacillus reuteri, ATCC23272; Lactobacillus reuteri ATCC 23272, anaerobic; read-out: Minimum inhibitory concentration (MIC)
[15] = system: Bacteroides fragilis ATCC 25285; type: cell-based; conditions: ATCC25285; Bacteroides fragilis ATCC 25285, anaerobic; read-out: Minimum inhibitory concentration (MIC)
[16] = system: Blautia producta ATCC 27340; type: cell-based; conditions: ATCC27340; Blautia producta ATCC 27340, anaerobic; read-out: Minimum inhibitory concentration (MIC)
[17] = system: Bacteroides vulgatus KLE 2381; type: cell-based; conditions: Phocaeicola vulgatus, KLE2381; Bacteroides vulgatus KLE 2381, anaerobic, stool isolate; read-out: Minimum inhibitory concentration (MIC)
[18] = system: Bacteroides eggerthii KLE 2382; type: cell-based; conditions: KLE2382; Bacteroides eggerthii KLE 2382, anaerobic, stool isolate; read-out: Minimum inhibitory concentration (MIC)
[19] = system: Enterobacter cloacae ATCC 13047; type: cell-based; conditions: ATCC13047; Enterobacter cloacae ATCC 13047, anaerobic; read-out: Minimum inhibitory concentration (MIC)
murine gut microbiome = assay: Impact on the murine fecal microbiome (16S rRNA sequencing); conditions: mouse, in vivo
Procedure: Stool samples were collected and V4 region of the 16s rRNA gene was amplified using primers and sequenced (IonTorrent).
Fecal pellets were collected 3 days before and 3 days after antibiotic treatment and were stored at −80° C. in PBS. Sequencing of a stool pellet from each mouse from before and after treatment was performed by MR DNA (www.mrdnalab.com, Shallowater, TX, USA) on an Ion Torrent PGM. Using PCR primers, the V4 variable region of the 16SrRNA gene was amplified in a single-step 30 cycle PCR with the HotStarTaq Plus Master Mix Kit (Qiagen, USA). The following conditions were used: 94° C. for 3 minutes and 30 cycles of 94° C. for 30 seconds, 53° C. for 40 seconds and 72° C. for 1 minute, then a final elongation step for 5 minutes at 72° C. […] Barcodes and primers and then sequences<150 bp were removed. Further, sequences with homopolymer runs exceeding 6 bp and sequences with ambiguous calls were removed. The sequences were then denoised, OTUs were generated, and chimeras were removed; OTUs were clustered at 3% divergence. Taxonomic classification was performed using BLASTn against a database derived from RDPII available at www.rdp.cme.msu.edu) and NCBI (www.ncbi.nlm.nih.gov). The change in relative abundance of the most abundant genera from before to after treatment of each individual mouse was reported. Further, raw sequences were processed in Qiita (Gonzalez, A., et al. (2018). Nat Methods 15, 796-798; the contents of which are herein incorporated by reference in its entirety) and were demultiplexed, trimmed to 100 bp, and closed reference OTU picking was performed against the Greengenes database at 97% similarity (McDonald, D. et al. (2012). ISME J 6, 610-618; the contents of which are herein incorporated by reference in its entirety). The alpha diversity based on the Simpson index was calculated in Qiita. The change in the Simpson index was calculated for the fecal microbiome of each mouse from before to after treatment. Statistical significance was calculated using a one-way ANOVA with Tukey's multiple comparisons test (p<0.05).

[20] = system: Leptospira biflexa ATCC 23582; conditions: Leptospira biflexa, ATCC23582, read-out: Minimum inhibitory concentration (MIC)
[21] = system: Borreliella burgdorferi B31; conditions: Borreliella burgdorferi, B31, read-out: Minimum inhibitory concentration (MIC)
Borrelia bavariensis = conditions: Borreliella bavariensis, read-out: Minimum inhibitory concentration (MIC)
Borreliella miyamotoi = conditions: Borreliella, read-out: Minimum inhibitory concentration (MIC)
B. burgdorferi N40 = assay: Mouse infection model (IP injection, oral gavage); conditions: for Culture positive (%): C3H, 5 days, whole ear culture
[22] = 156 mg/kg, IP injection, twice a day for 5 days

## CC1(C)S[C@@H]2[C@H](NC(=O)[C@H](N)c3ccc(O)cc3)C(=O)N2[C@H]1C(=O)O [Amoxicillin]
[1]
  MIC: 2 µg/mL (≈ 5.47 µM)
[2]
  MIC: 32 µg/mL (≈ 87.6 µM)
[3]
  MIC: 0.12 µg/mL (≈ 0.328 µM)
[4]
  MIC: 1 µg/mL (≈ 2.74 µM)
[5]
  MIC: > 128 µg/mL
[6]
  MIC: 2 µg/mL (≈ 5.47 µM)
Escherichia coli MG1655
  MIC: 16 µg/mL (≈ 43.8 µM)
[7]
  MIC: > 128 µg/mL
[8]
  MIC: 0.06 µg/mL (≈ 0.164 µM)
[9]
  MIC: 64 µg/mL (≈ 175 µM)
[10]
  MIC: 1 µg/mL (≈ 2.74 µM)
[11]
  MIC: 32 µg/mL (≈ 87.6 µM)
[12]
  MIC: 2 µg/mL (≈ 5.47 µM)
[13]
  MIC: 1 µg/mL (≈ 2.74 µM)
[14]
  MIC: 4 µg/mL (≈ 10.9 µM)
[15]
  MIC: 16 µg/mL (≈ 43.8 µM)
[16]
  MIC: 1 µg/mL (≈ 2.74 µM)
[17]
  MIC: 128 µg/mL (≈ 350 µM)
[18]
  MIC: 0.5 µg/mL (≈ 1.37 µM)
[19]
  MIC: > 128 µg/mL
Murine gut microbiome
  Bloom of Bacteroides: produced a bloom of Bacteroides
  Changes in the composition of the microbiota: significant changes
  Mice with Enterococcaceae blooms: 4/5
[20]
  MIC: 8 µg/mL (≈ 21.9 µM)
[21]
  MIC: 0.25 µg/mL (≈ 0.684 µM)
Borrelia bavariensis
  MIC: 0.06 µg/mL (≈ 0.164 µM)
Borreliella miyamotoi
  MIC: 0.12 µg/mL (≈ 0.328 µM)
B. burgdorferi N40; oral gavage, daily dose 200 mg/kg/day
  Culture positive (%): 0%

## C[C@H]1c2cccc(O)c2C(=O)C2=C(O)[C@]3(O)C(=O)C(C(N)=O)=C(O)[C@@H](N(C)C)[C@@H]3[C@@H](O)[C@@H]21 [Doxycycline]
[1]
  MIC: 0.12 µg/mL (≈ 0.27 µM)
[2]
  MIC: 0.03 µg/mL (≈ 0.0675 µM)
[3]
  MIC: 0.25 µg/mL (≈ 0.563 µM)
[4]
  MIC: 0.12 µg/mL (≈ 0.27 µM)
[5]
  MIC: 0.5 µg/mL (≈ 1.13 µM)
[6]
  MIC: 4 µg/mL (≈ 9 µM)
Escherichia coli MG1655
  MIC: 2 µg/mL (≈ 4.5 µM)
[7]
  MIC: 32 µg/mL (≈ 72 µM)
[8]
  MIC: 0.12 µg/mL (≈ 0.27 µM)
[9]
  MIC: 4 µg/mL (≈ 9 µM)
[10]
  MIC: 0.25 µg/mL (≈ 0.563 µM)
[11]
  MIC: 0.25 µg/mL (≈ 0.563 µM)
[12]
  MIC: 0.25 µg/mL (≈ 0.563 µM)
[13]
  MIC: 0.06 µg/mL (≈ 0.135 µM)
[14]
  MIC: 8 µg/mL (≈ 18 µM)
[15]
  MIC: 0.5 µg/mL (≈ 1.13 µM)
[16]
  MIC: 2 µg/mL (≈ 4.5 µM)
[17]
  MIC: 1 µg/mL (≈ 2.25 µM)
[18]
  MIC: 0.01 µg/mL (≈ 0.0225 µM)
[19]
  MIC: 8 µg/mL (≈ 18 µM)
[20]
  MIC: 2 µg/mL (≈ 4.5 µM)
[21]
  MIC: 0.25 µg/mL (≈ 0.563 µM)
Borrelia bavariensis
  MIC: 0.12 µg/mL (≈ 0.27 µM)
Borreliella miyamotoi
  MIC: 0.12 µg/mL (≈ 0.27 µM)
B. burgdorferi N40; oral gavage, daily dose 100 mg/kg/day
  Culture positive (%): 0%

## CO/N=C(\C(=O)N[C@@H]1C(=O)N2C(C(=O)O)=C(CSc3nc(=O)c(=O)[nH]n3C)CS[C@H]12)c1csc(N)n1 [Ceftriaxone]
[1]
  MIC: 0.5 µg/mL (≈ 0.902 µM)
[2]
  MIC: 1 µg/mL (≈ 1.8 µM)
[3]
  MIC: < 0.01 µg/mL
[4]
  MIC: 8 µg/mL (≈ 14.4 µM)
[5]
  MIC: 1 µg/mL (≈ 1.8 µM)
[6]
  MIC: 0.25 µg/mL (≈ 0.451 µM)
Escherichia coli MG1655
  MIC: 0.06 µg/mL (≈ 0.108 µM)
[7]
  MIC: 64 µg/mL (≈ 115 µM)
[8]
  MIC: 0.03 µg/mL (≈ 0.0541 µM)
[9]
  MIC: 0.06 µg/mL (≈ 0.108 µM)
[10]
  MIC: 4 µg/mL (≈ 7.21 µM)
[11]
  MIC: 1 µg/mL (≈ 1.8 µM)
[12]
  MIC: 0.12 µg/mL (≈ 0.216 µM)
[13]
  MIC: 0.25 µg/mL (≈ 0.451 µM)
[14]
  MIC: 32 µg/mL (≈ 57.7 µM)
[15]
  MIC: 2 µg/mL (≈ 3.61 µM)
[16]
  MIC: 0.5 µg/mL (≈ 0.902 µM)
[17]
  MIC: 128 µg/mL (≈ 231 µM)
[19]
  MIC: 64 µg/mL (≈ 115 µM)
Murine gut microbiome
  Mice with Enterococcaceae blooms: 5/5
[20]
  MIC: 2 µg/mL (≈ 3.61 µM)
[21]
  MIC: 0.01 µg/mL (≈ 0.018 µM)
Borrelia bavariensis
  MIC: 0.01 µg/mL (≈ 0.018 µM)
Borreliella miyamotoi
  MIC: 0.01 µg/mL (≈ 0.018 µM)
B. burgdorferi N40; [22]
  B. burgdorferi culture (% positive): 0%
  Mean # of B. burgdorferi/10 mg of skin tissue (qPCR): <1 B. burgdorferi/10 mg of skin t
B. burgdorferi N40; intraperitoneal injection, daily dose 312 mg/kg/day
  Culture positive (%): 0%
